Results published in patent publication US7071231B2, “Naphthalene ureas as glucose uptake enhancers” (Telik, Inc., priority 1999, dated 2006).
Where a name gives a salt, the structure may show the parent alone. Read-outs that look alike come from different tables or passages of the source.

Assays:
[1] = target: T1, β-kinase domain of the human insulin receptor (CKD) (Homo sapiens, UniProt P06213); experiment: 32P-cytoplasmic kinase domain (CKD) autophosphorylation assay; type: biochemical; conditions: phosphorylation of CKD expressed as % of the vehicle level; 10 minutes at room temperature; compound concentration not given
T1 construct: The complete β-kinase domain of the human insulin receptor (CKD) was expressed in, and purified from, baculovirus; made in house
T1 sequence (P06213 980-1382 limits assumed): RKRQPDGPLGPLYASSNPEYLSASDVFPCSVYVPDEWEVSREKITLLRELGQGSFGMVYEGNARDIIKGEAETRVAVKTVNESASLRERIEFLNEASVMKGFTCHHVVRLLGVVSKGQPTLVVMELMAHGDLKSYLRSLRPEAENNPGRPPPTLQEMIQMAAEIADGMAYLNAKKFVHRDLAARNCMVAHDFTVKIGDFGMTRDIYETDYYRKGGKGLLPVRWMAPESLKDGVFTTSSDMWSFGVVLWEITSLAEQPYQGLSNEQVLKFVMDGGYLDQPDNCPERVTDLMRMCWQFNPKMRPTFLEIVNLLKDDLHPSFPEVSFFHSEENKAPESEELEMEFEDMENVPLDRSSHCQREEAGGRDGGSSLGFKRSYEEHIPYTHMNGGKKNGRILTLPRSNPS
Method: ^32P-cytoplasmic Kinase Domain (CKD) Autophosphorylation Assay The insulin signaling pathway is activated through stimulation of the insulin receptor. A major component of this activation is the phosphorylation of a specific portion of the receptor called the β-kinase domain. The complete β-kinase domain of the human insulin receptor (CKD) was expressed in, and purified from, baculovirus. CKD (4.0μg/ml), in a solution of 29 mM HEPES (pH 7.6), 0.05% Triton X-100, 10 mM MgCl2, 2 mM MnCl2 (50 μl final volume), was combined with 50 μM ATP, and 5 μCi ^32P-ATP (3000Ci/mmol.). A test compound, or the vehicle (dimethyl sulfoxide (DMSO)) was added to a final DMSO concentration of 1%. The mixture was incubated for 10 minutes at room temperature. The reaction was terminated by the addition of 10 μl 200 mM EDTA. A 30 μl volume was removed, mixed with 5 μl of 6× Laemmeli sodium dodecyl sulfate (SDS) treatment buffer, and heated to 94° C. for 5 minutes. A 20 μl aliquot was then run an SDS-PAGE gel. The radioactivity incorporated into the CKD band was quantified by phosphorimaging of the gel, or scintillation counting of the excised bands. The potency of a compound for increasing phosphorylation was expressed as % of the vehicle level.

3T3 L1 fibroblasts = experiment: Glucose transport activity assay (14C-2-deoxy-D-glucose uptake); type: cell-based; conditions: EC (effective concentration) for increase in glucose transport, 14C-2-deoxy-D-glucose, 3T3 L1 cells, read-out: Concentration (μM) to reach >150% activity of vehicle control
Outline: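 Differentiated 3T3 L1 adipocytes (IBMX/dexamethasone/insulin induction), serum-starved overnight, preincubated 30 min at 37 °C with compound ± insulin in pH 7.4 salt buffer, then 30 min with 5 μCi/ml 14C-2-deoxy-D-glucose. Lysate radioactivity counted; EC = concentration raising uptake above 150% of vehicle control.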

| Structure (SMILES) | % Activity vs. Control [1] [%] | EC (150% of vehicle control) (3T3 L1 fibroblasts; Mus musculus) [µM] | EC (150% of vehicle control) (3T3 L1 fibroblasts) [µM] |
| --- | --- | --- | --- |
| O=C(Nc1ccc2ccc(S(=O)(=O)O)cc2c1)Nc1ccc2ccc(S(=O)(=O)O)cc2c1 [Compound 3, 7-{[(7-sulfo-2-naphthyl)amino]carbonylamino}naphthalene-2-sulfonic acid disodium salt] | 88 | 3.2 |  |
| O=C(Nc1ccc2ccc(S(=O)(=O)O)cc2c1)Nc1ccc2ccc(S(=O)(=O)Nc3cccc(S(=O)(=O)O)c3)cc2c1 [Compound 12, 7-{[(7-{[(3-sulfophenyl)amino]sulfonyl}-2-naphthyl)amino]carbonylamino}naphthalene-2-sulfonic acid disodium salt] | 131 |  |  |
| O=C(Nc1ccc2c(O)cc(S(=O)(=O)O)cc2c1)Nc1ccc2c(O)cc(S(=O)(=O)Nc3cccc(S(=O)(=O)O)c3)cc2c1 [Compound 14, 4-hydroxy-7-{[(5-hydroxy-7-{[(3-sulfophenyl)amino]sulfonyl}(2-naphthyl))amino]carbonylamino}naphthalene-2-sulfonic acid] | 110 |  |  |
| O=C(Nc1ccc2c(O)c(Br)c(S(=O)(=O)O)cc2c1)Nc1ccc2c(O)c(Br)c(S(=O)(=O)O)cc2c1 [Compound 16, 3-bromo-7-{[(6-bromo-5-hydroxy-7-sulfo(2-naphthyl))amino]carbonylamino}-4-hydroxynaphthalene-2-sulfonic acid disodium salt] | 144 | 32 |  |
| NS(=O)(=O)c1cccc(NS(=O)(=O)c2ccc3ccc(NC(=O)Nc4ccc5ccc(S(=O)(=O)Nc6cccc(S(N)(=O)=O)c6)cc5c4)cc3c2)c1 [Compound 23, N-(7-{[(3-sulfamoylphenyl)amino]sulfonyl}(2-naphthyl))[(7-{[(3-sulfamoylphenyl)amino]sulfonyl}(2-naphthyl))amino]carboxamide] | 80 | 10 |  |
| COC(=O)c1ccc(NS(=O)(=O)c2cc(O)c3ccc(NC(=O)Nc4ccc5c(O)cc(S(=O)(=O)O)cc5c4)cc3c2)cc1 [Compound 26, 4-hydroxy-7-({[5-hydroxy-7-({[4-(methoxycarbonyl)phenyl]amino}sulfonyl)(2-naphthyl)]amino}carbonylamino)naphthalene-2-sulfonic acid] | 124 | 32 |  |
| COC(=O)c1ccc(NS(=O)(=O)c2cc(O)c3ccc(NC(=O)Nc4ccc5c(O)cc(S(=O)(=O)Nc6ccc(C(=O)OC)cc6)cc5c4)cc3c2)cc1 [Compound 27, methyl 4-({[4-hydroxy-7-({[5-hydroxy-7-({[4-(methoxycarbonyl)phenyl]amino}sulfonyl)(2-naphthyl)]amino}carbonylamino)-2-naphthyl]sulfonyl}amino)benzoate] | 112 |  |  |
| O=C(Nc1ccc2c(O)cc(S(=O)(=O)O)cc2c1)Nc1ccc2c(O)cc(S(=O)(=O)Nc3ccc(C(=O)O)cc3)cc2c1 [Compound 28, 4-{[(4-hydroxy-7-{[N-(5-hydroxy-7-sulfo(2-naphthyl))carbamoyl]amino}-2-naphthyl)sulfonyl]amino}benzoic acid] | 124 | 32 |  |
| COC(=O)c1cccc(NS(=O)(=O)c2ccc3ccc(NC(=O)Nc4ccc5ccc(S(=O)(=O)Nc6cccc(C(=O)OC)c6)cc5c4)cc3c2)c1 [Compound 39, methyl 3-({[7-({[7-({[3-(methoxycarbonyl)phenyl]amino}sulfonyl)-2-naphthyl]amino}carbonylamino)-2-naphthyl]sulfonyl}amino)benzoate] | 93 | 32 |  |
| O=C(Nc1ccc2ccc(S(=O)(=O)Nc3cccc(C(=O)O)c3)cc2c1)Nc1ccc2ccc(S(=O)(=O)Nc3cccc(C(=O)O)c3)cc2c1 [Compound 40, 3-{[(7-{[N-(7-{[(3-carboxyphenyl)amino]sulfonyl}-2-naphthyl)carbamoyl]amino}-2-naphthyl)sulfonyl]amino}benzoic acid] | 130 | 3.2 |  |
| O=C(Nc1ccc2c(O)cc(S(=O)(=O)Nc3cccc(C(=O)O)c3)cc2c1)Nc1ccc2c(O)cc(S(=O)(=O)Nc3cccc(C(=O)O)c3)cc2c1 [Compound 42, 3-{[(7-{[N-(7-{[(3-carboxyphenyl)amino]sulfonyl}-5-hydroxy(2-naphthyl))carbamoyl]amino}-4-hydroxy-2-naphthyl)sulfonyl]amino}benzoic acid] | 124 | 3.2 |  |
| O=C(Nc1ccc2ccc(S(=O)(=O)Nc3ccccc3)cc2c1)Nc1ccc2ccc(S(=O)(=O)Nc3ccccc3)cc2c1 [Compound 76, N-{7-[(phenylamino)sulfonyl](2-naphthyl)}({7-[(phenylamino)sulfonyl](2-naphthyl)}amino)carboxamide] | 89 |  |  |
| O=C(Nc1ccc2ccc(S(=O)(=O)Nc3cccnc3)cc2c1)Nc1ccc2ccc(S(=O)(=O)Nc3cccnc3)cc2c1 [Compound 77, N-{7-[(3-pyridylamino)sulfonyl](2-naphthyl)}({7-[(3-pyridylamino)sulfonyl](2-naphthyl)}amino)carboxamide] | 171 | 3.2 |  |
| NS(=O)(=O)c1ccc2ccc(NC(=O)Nc3ccc4ccc(S(N)(=O)=O)cc4c3)cc2c1 [Compound 89, N-(7-sulfamoyl(2-naphthyl))[(7-sulfamoyl(2-naphthyl))amino]carboxamide] | 104 | 3.2 |  |
| CCOC(=O)COc1cc(S(=O)(=O)O)cc2cc(NC(=O)Nc3ccc4c(O)cc(S(=O)(=O)O)cc4c3)ccc12.N.N [Compound 94, 7-[({5-[(ethoxycarbonyl)methoxy]-7-sulfo(2-naphthyl)}amino)carbonylamino]-4-hydroxy-naphthalene-2-sulfonic acid, diammonium salt] | 279 |  | 32 |
| CCOC(=O)COc1cc(S(=O)(=O)O)cc2cc(NC(=O)Nc3ccc4c(OCC(=O)OCC)cc(S(=O)(=O)O)cc4c3)ccc12.N.N [Compound 95, 4-[(ethoxycarbonyl)-methoxy]-7-[({5-[(ethoxycarbonyl)methoxy]-7-sulfo(2-naphthyl)}amino)-carbonylamino]-naphthalene-2-sulfonic acid, diammonium salt] | 101 |  |  |
| O=C(O)COc1cc(S(=O)(=O)[O-])cc2cc(NC(=O)Nc3ccc4c(OCC(=O)O)cc(S(=O)(=O)[O-])cc4c3)ccc12.[Na+].[Na+] [Compound 97, 2-[6-({N-[5-(carboxymethoxy)-7-sulfo(2-naphthyl)]carbamoyl}amino)-3-sulfonaphthyloxy]acetic acid disodium salt] | 99 |  |  |
| COc1cc(S(=O)(=O)O)cc2cc(NC(=O)Nc3ccc4c(O)cc(S(=O)(=O)O)cc4c3)ccc12 [Compound 98, 4-hydroxy-7-{[(5-methoxy-7-sulfo(2-naphthyl))amino]carbonylamino}naphthalene-2-sulfonic acid] | 166 | 32 |  |
| COc1cc(S(=O)(=O)O)cc2cc(NC(=O)Nc3ccc4c(OC)cc(S(=O)(=O)O)cc4c3)ccc12 [Compound 99, 4-methoxy-7-{[(5-methoxy-7-sulfo(2-naphthyl))amino]carbonylamino}naphthalene-2-sulfonic acid] | 110 | 32 |  |
| O=C(Nc1ccc2c(OCc3ccccc3S(=O)(=O)O)cc(S(=O)(=O)O)cc2c1)Nc1ccc2c(OCc3ccccc3S(=O)(=O)O)cc(S(=O)(=O)O)cc2c1 [Compound 100, 4-[(2-sulfophenyl)methoxy]-7-[({7-sulfo-5-[(2-sulfophenyl)methoxy](2-naphthyl)}amino)carbonylamino]naphthalene-2-sulfonic acid] | 79 |  |  |
| O=C(Nc1ccc2c(OCCCS(=O)(=O)O)cc(S(=O)(=O)O)cc2c1)Nc1ccc2c(OCCCS(=O)(=O)O)cc(S(=O)(=O)O)cc2c1 [Compound 101, 4-(3-sulfopropoxy)-7-({[7-sulfo-5-(3-sulfopropoxy)(2-naphthyl)]amino}carbonylamino)naphthalene-2-sulfonic acid] | 104 |  |  |
| O=C(Nc1ccc2c(O)cc(S(=O)(=O)O)cc2c1)Nc1ccc2c(OCCCS(=O)(=O)O)cc(S(=O)(=O)O)cc2c1 [Compound 102, 4-hydroxy-7-({[7-sulfo-5-(3-sulfopropoxy)(2-naphthyl)]amino}carbonylamino)naphthalene-2-sulfonic acid] | 115 |  |  |
